Experimental data from patent publication US6160011A (priority 1998, dated 2000).
Where two headings read alike, the source gives them in different places.

Legend:
[1] = cited from earlier work
[2] = tested on: androgen receptor (in vivo functional activity); details: vs other antiandrogen therapies; cited from earlier work
[3] = tested on: AR (plasmid pCMVhAR) in CV-1 cells; assay: Transcriptional activation (AR-mediated luciferase reporter, cotransfected CV-1 cells); type: cell-based; details: for minimal effective concentration: read-out: Potency: lowest concentration of the ligand capable of maximally stimulating AR-mediated transcription
Protocol: The agonist activity of each ligand was examined using transfected CV-1 cells (American Type Culture Collection, Rockville, Md.). CV-1 cells were maintained in DMEM containing 10% FBS at 37° C. in a humidified atmosphere containing 5% carbon dioxide. DMEM without phenol red was used during transfection studies. One day before transfection, monolayer cells were removed from flasks and plated at a density of 4.5×10^5 cells/well in 6-well tissue culture plates. Cells in each well were then cotransfected with 100 ng of an AR expression vector (plasmid pCMVhAR; provided by Dr. Elizabeth Wilson at The University of North Carolina, Chapel Hill, N.C.), 2.5 μg of a luciferase reporter vector (plasmid pMMTV-Luc; provided by Dr. Ronald Evans at The Salk Institute, San Diego, Calif.), and 2.5 μg of a control β-galactosidase vector (plasmid pSV-β-galactosidase; Promega Corporation, Madison, Wis.). Transfection was performed using Lipofectamine™ according to the manufacturer's instructions (Life Technologies, Gaithersburg, Md.). Ten hours after adding the transfection reagent, cells were washed twice with DMEM containing 0.2% FBS and then returned to the incubator. After an additional 10 to 12 hours of incubation, the medium was removed and replaced with DMEM containing 0.2% FBS and various concentrations of DHT or the ligand of interest. Final ligand concentrations were 0.1, 1, 10, 50, 100, 500, and 1,000 nM. The drug-containing medium was replaced after 24 hours of incubation to minimize the possible effects of ligand degradation on measurement of transcriptional activation. Control studies in which neither DHT nor ligand were added to the medium were also performed. Cells were washed with phosphate buffered saline, pH 7.4, after 48 hours of drug treatment and harvested using 350 μL of reporter lysis buffer (Promega Corporation, Madison, Wis.). Cell lysates were transferred to a microcentrifuge tube, vortexed briefly, and centrifuged at 12,000 g for 2 minutes; An aliquot (150 μL) of supernatant was used for determination of β-galactosidase activity in each well using a spectrophotometer (Cary Model 1E, Varian Associates, Sunnyvale, Calif.) set at a wavelength of 420 nm. A separate aliquot (100 μL) was used for determination of luciferase activity assay (Luciferase Assay System, Promega Corporation, Madison, Wis.) using an automated luminometer (Model AutoLumat LB953, Wallac Inc., Gaithersburg, Md.). Viable cell numbers and transfection efficiency in each well were normalized by expressing the transcriptional activation as a ratio of the luciferase activity to β-galactosidase activity in individual wells. […] All experiments were performed in triplicate. Potency was reported as the lowest concentration of the ligand used during transfection experiments capable of producing maximal AR-mediated transcriptional activation.

sperm production in men = details: cited from earlier work
[4] = target: T1, cytosolic androgen receptor (AR) (Rattus norvegicus, UniProt P15207); assay: biochemical; type: binding, Sprague-Dawley rats
T1 construct: The supernatant (cytosol) containing AR protein was removed and stored; from tissue; host or cells: ventral prostate cytosol of castrated male Sprague-Dawley rats
T1 sequence (P15207 1-902): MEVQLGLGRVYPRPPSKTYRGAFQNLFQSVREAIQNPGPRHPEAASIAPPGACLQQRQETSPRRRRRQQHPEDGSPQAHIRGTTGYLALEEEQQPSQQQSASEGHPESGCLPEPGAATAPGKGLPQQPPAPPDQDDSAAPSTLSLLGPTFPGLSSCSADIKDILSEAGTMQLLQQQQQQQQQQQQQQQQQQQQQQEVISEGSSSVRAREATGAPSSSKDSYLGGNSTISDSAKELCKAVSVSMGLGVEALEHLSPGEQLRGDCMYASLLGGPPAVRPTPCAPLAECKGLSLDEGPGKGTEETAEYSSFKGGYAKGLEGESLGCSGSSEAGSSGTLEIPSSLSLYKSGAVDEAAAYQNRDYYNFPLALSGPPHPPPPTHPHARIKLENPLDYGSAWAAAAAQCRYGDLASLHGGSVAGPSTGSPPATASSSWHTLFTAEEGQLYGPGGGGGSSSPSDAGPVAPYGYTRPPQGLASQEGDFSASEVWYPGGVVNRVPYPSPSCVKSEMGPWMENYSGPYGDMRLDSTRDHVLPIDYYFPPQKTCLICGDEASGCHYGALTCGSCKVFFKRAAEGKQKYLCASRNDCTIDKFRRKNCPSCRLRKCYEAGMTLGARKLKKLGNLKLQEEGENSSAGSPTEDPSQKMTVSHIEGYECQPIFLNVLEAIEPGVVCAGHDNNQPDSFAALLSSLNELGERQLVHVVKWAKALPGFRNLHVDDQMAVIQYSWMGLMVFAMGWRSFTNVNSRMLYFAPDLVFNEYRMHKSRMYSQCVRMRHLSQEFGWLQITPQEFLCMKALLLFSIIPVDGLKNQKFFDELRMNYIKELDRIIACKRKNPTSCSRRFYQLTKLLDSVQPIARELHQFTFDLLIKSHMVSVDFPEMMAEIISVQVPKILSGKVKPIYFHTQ

AR = assay: Covalent (irreversible) binding to the AR; details: studies not described
[5] = oral administration; cited from earlier work
[6] = target: T1, cytosolic androgen receptor (AR); assay: Saturation binding of 3H-MIB to AR in cytosol (Scatchard); parameters: species or system Sprague-Dawley rats; details: mean±S.D., n=3; 4° C., 18 hours
[7] = healthy male volunteers, single oral dose of the racemic mixture
[8] = CV-1, 48 h, read-out: Agonist Activity (% of DHT): maximal percentage of transcriptional activation observed for each ligand
[9] = 3H-MIB 1 nM, 4° C., 18 hours, R-isomers of C-1 to C-5, read-out: Ki (Table 1)
[10] = CV-1, read-out: agonist activity

## CC(O)(CS(=O)(=O)c1ccc(F)cc1)C(=O)Nc1ccc(C#N)c(C(F)(F)F)c1 (racemic) [Casodex]
[1]; after oral administration
  oral absorption: well absorbed after oral administration
[1]; in man
  biological half-life: 6 days
[2]
  tolerance (in words): improved tolerance

## C[C@](O)(CS(=O)(=O)c1ccc(F)cc1)C(=O)Nc1ccc(C#N)c(C(F)(F)F)c1 [R-Bicalutamide, reference compound]
[1]; [7]
  elimination half-life: 101 h
[3]
  AR-mediated transcriptional activation (in words): unable to stimulate AR-mediated transcriptional activation at even the highest concentrations tested
[3]; [8]
  Emax: 8.28 ± 2.66%
[3]; CV-1, read-out: mean agonist activity at 1,000 nM
  Emax at 1 µM: 8.3%

## CCCCCCC(=O)O[C@H]1CC[C@H]2[C@@H]3CCC4=CC(=O)CC[C@]4(C)[C@H]3CC[C@]12C [testosterone enanthate]
Sperm production in men; immediately following intramuscular injection
  testosterone peak levels after injection (in words): supraphysiologic peak levels of testosterone
Sperm production in men; weekly intramuscular injections, WHO report
  azoospermia or severe oligospermia (less than 3 million sperm per ml) and infertility, share of men: 98%

## CCC(=O)Nc1ccc(SC[C@](C)(O)C(=O)Nc2ccc(C#N)c(C(F)(F)F)c2)cc1 [C-10]
[4]
  Ki: 3.81 nM
  RBA (%): (IC50 of DHT)/(IC50 of a ligand)*100%: 7.08%

## CC(=O)Nc1ccc(SC[C@@](C)(O)C(=O)Nc2ccc(C#N)c(C(F)(F)F)c2)cc1 [C-8 (S)]
[4]
  Ki: 141 nM
  RBA (%): (IC50 of DHT)/(IC50 of a ligand)*100%: 0.19%

## CC(=O)Nc1ccc(SC[C@](C)(O)C(=O)Nc2ccc(C#N)c(C(F)(F)F)c2)cc1 [C-8 (R)]
[4]
  Ki: 1 nM
  RBA (%): (IC50 of DHT)/(IC50 of a ligand)*100%: 26.9%

## CC(=O)N(C(C)=O)c1ccc(SC[C@](C)(O)C(=O)Nc2ccc(C#N)c(C(F)(F)F)c2)cc1 [C-9]
[4]
  Ki: 2.64 nM
  RBA (%): (IC50 of DHT)/(IC50 of a ligand)*100%: 10.2%

## C[C@](O)(CSc1ccc(NC(=O)CCl)cc1)C(=O)Nc1ccc(C#N)c(C(F)(F)F)c1 [C-1 (R)]
AR
  covalent (irreversible) binding to AR: does not covalently (i.e., irreversibly) bind the AR

## C[C@]12CC[C@H]3[C@@H](CCC4=CC(=O)CC[C@@]43C)[C@@H]1CC[C@@H]2O [testosterone]
[5]
  oral absorption / androgenic effect (in words): readily absorbed after oral administration, but demonstrates little androgenic effect due to rapid hepatic metabolism

## C[C@](O)(CI)C(=O)Nc1ccc([N+](=O)[O-])c(C(F)(F)F)c1 [C-5]
[4]; [9]
  Ki: 0.86 ± 0.11 nM
[3]; [8]
  Emax: 88.6 ± 18%
[3]; CV-1, 48 h
  minimal effective concentration: 0.5 µM

## C[C@](O)(CBr)C(=O)Nc1ccc(C#N)c(C(F)(F)F)c1 [C-2]
[4]; [9]
  Ki: 7.98 ± 0.86 nM
[3]; [8]
  Emax: 18.5 ± 5.08%
[3]; CV-1, 48 h
  minimal effective concentration: 0.5 µM
[3]; [10]
  Emax: < 20%

## C[C@@](O)(CS(=O)(=O)c1ccc(F)cc1)C(=O)Nc1ccc(C#N)c(C(F)(F)F)c1 [S-Casodex]
[1]; [7]
  elimination half-life (t1/2): 19 h

## CC(=O)Nc1ccc(S(=O)(=O)C[C@](C)(O)C(=O)Nc2ccc(C#N)c(C(F)(F)F)c2)cc1 [C-7]
[4]
  Ki: 1.7 nM
  RBA (%): (IC50 of DHT)/(IC50 of a ligand)*100%: 15.9%

## C[C@](O)(CI)C(=O)Nc1ccc(C#N)c(C(F)(F)F)c1 [C-4]
[4]; [9]
  Ki: 2.79 ± 1.35 nM
[3]; [8]
  Emax: 20.5 ± 7.57%
[3]; CV-1, 48 h
  minimal effective concentration: 0.5 µM
[3]; [10]
  Emax: < 20%

## C[C@]12CCC(=O)C[C@@H]1CC[C@@H]1[C@@H]2CC[C@]2(C)[C@@H](O)CC[C@@H]12 [DHT, dihydrotestosterone, reference compound]
[3]; [8]
  Emax: 100%

## C[C@@H]1CC2=CC(=O)CC[C@@H]2[C@H]2CC[C@@]3(C)[C@@H](CC[C@]3(C)O)[C@@H]21 [3H-MIB, (17α-methyl-^3 H)-Mibolerone]
[6]
  Kd: 0.19 ± 0.01 nM

## CCC(=O)N(C(=O)CC)c1ccc(SC[C@](C)(O)C(=O)Nc2ccc(C#N)c(C(F)(F)F)c2)cc1 [C-11]
[4]
  Ki: > 1000 nM
  RBA (%): (IC50 of DHT)/(IC50 of a ligand)*100%: < 0.10%
